# Reference: patent publication US20060234987A1, “Neuroprotective benzo 1 3 oxathiol 2 ones” (priority 2003, published 2006)
# Tests used:
# [1] = Conversion of esters and carbamates to phenol in microsomal fractions; format: in vitro ADME; conditions: incubated with microsomal fractions, standard conditions
# Description: The phenolic moiety observed in many of the compounds represented by Formula I may be converted to esters, carbamates, thiocarbamates and sulfonates. The Applicant has shown that both esters and carbamates are rapidly converted to the corresponding phenol when incubated in the presence of microsomal fractions using standard conditions (Cresteil, T., et al. Am. Soc. Pharm. Exper. Therapeutics, 2002, 30, 438-445). These microsomal fractions contain various active esterase and P450 oxidative enzymes. […] Esters and carbamates of this type allow for the preparation of various novel pro-drugs which display increased water solubility, stability, formulation, and pharmacokinetic profiles. The carbamates disclosed in U.S. Pat. No. 4,349,685 are limited to lower alkyl, substituted aryl, haloalkyl, carbalkoxyalkene or an alkyl carbonyloxyalkylene group. The preferred embodiments of this disclosure include esters and carbamates represented by Formula I, where the carbamate or ester moiety includes substituted lower alkyl, heteroaryl, substituted heteroaryl moieties which contain a basic nitrogen, capable of increasing the water solubility of said compound via an acid/base salt (typified by compounds 55 and 61).
# SCG neurons [2] = test: Protection of SCG neurons from anti-NGF killing; format: cell-based, Sprague Dawley rats; conditions: Rattus norvegicus, Neuron; anti-NGF antibody, 48 hours, Alamar Blue viability; read-out: IC50, rescue from anti-NGF killing of cultured SCG neurons
# Description: Neurotrophins are critical to the growth, development, and survival of small fiber neurons of the PNS. SCG neurons are neurons of the PNS that undergo apoptosis upon NGF withdrawal. In a typical experiment SCG neurons are cultured in the presence of NGF, which induces survival and neurite out-growth. After 5 days the NGF is removed by either the addition of anti-NGF polyclonal antibody (Sigma) or by repeated washings (4 times) with NGF free media, resulting in the apoptosis of up to 90% of the neurons after 48 hours, as measured by MTS staining. The addition of selected compounds of Formula I to the final cellular media provides upwards of 100% protection, at drug concentrations ranging from 10 to 50 μM (see Example 62).
# Protection of SCG neurons from anti-NGF killing. SCG neurons were isolated from day 1 neonatal Sprague Dawley rats, plated at a cell density of 5,000 cells/well, and incubated in Biowhittaker Ultraculture containing 1% Penstrep, 1% L-glutamine, 0.7% ARAC, 3% rat serum, and NGF (50 ng/mL, Calomone Labs), at 37° C., under a 5% CO2 atmosphere. After 4 days the cells were treated with anti-NGF antibody (Sigma). At this time compound was added and the cells were maintained serum and NGF free for 48 hours, at which time viability of the neurons was assessed using Alamar Blue (Medicorp) staining. Table 3 summarizes selected IC50 values from compounds tested using this protocol.
# SCG neurons [3] = test: In vitro protection of SCG neurons from Taxol killing; format: cell-based, Sprague Dawley rats; conditions: Rattus norvegicus, Neuron; Taxol 50 ng/mL, 48 hours, MTS viability; read-out: IC50, rescue from Taxol killing of SCG neurons
# Source text: Taxol™ is regularly used in the treatment of breast and other cancers. Taxol™ binds to the cyto-skeletal protein tubulin, thereby inhibiting normal microtubular […] and inducing cellular apoptosis. Despite its potency as an anti-tumour agent, Taxol™ is also toxic to neurons, inducing dose limiting peripheral neuropathies. The addition of Taxol™ to cultured SCG neurons induces the degradation or loss of upwards of 80% of the neurons. The addition of selected compounds of Formula I to the cellular media, concurrently with Taxol™, protects upwards of 100% of the neurons, at drug concentrations ranging from 3 to 50 μM (see Example 63).
# In Vitro Protection of SCG neurons from Taxol killing. SCG neurons were isolated from day 1 neonatal Sprague Dawley rats, plated at a cell density of 10,000 cells/well, and incubated in Biowhittaker Ultraculture containing 1% Penstrep, 1% L-glutamine, 0.7% ARAC, 3% rat serum, and NGF (50 ng/mL, Calomone Labs) at 37° C., under a 5% CO2 atmosphere. After 5 days the cells were treated with compound and Taxol™ (50 ng/mL). Viability of neurons was assessed 48 hours later using MTS (Promega) staining. Table 4 summarizes selected IC50 values from compounds tested using this protocol. Also, see FIG. 1 for compound protection against Taxol killing.
smiles,measurement,setting,value
"O=C(Oc1cc(-c2ccc(-c3ccccc3)cc2)c2oc(=O)sc2c1)c1cccnc1 [Compound 55, 5-(3-pyridylcarbonyloxy)-7-biphenylbenzo[1,3]oxathiol-2-one]",conversion to parent phenol in microsomal fractions,[1],rapidly converted to their parent phenols
same,IC50,SCG neurons [2],7 µM
same,IC50,SCG neurons [3],2 µM
